Data reported in patent US20120077802A1 (SUNOVION PHARMACEUTICALS INC., priority 2009, published 2012).

Each compound was assayed against T1, human histamine H3 receptor (Homo sapiens, UniProt Q9Y5N1) (assay: H3 GTPγS assay (SPA method), histamine H3 in vitro assay). Settings: GTPγ[35S] SPA, membranes of cells expressing human H3 receptor; in one embodiment HCl salts tested; read-out: Potency (functional potency as indicated by IC50).
T1 construct: host or cells: cells expressing the human H3 receptor
Format: biochemical
Protocol: H3 GTPγS assay (SPA method) was performed at EuroScreen (Belgium, ES-392-C) using conventional methods. Briefly, cells expressing the human histamine H3 receptor were homogenized in 15 mM Tris-HCl pH 7.5, 2 mM MgCl2, 0.3 mM EDTA, and 1 mM EGTA. Membranes were washed twice in the above tris buffer, collected by centrifugation (40,000×g, 25 min), and re-suspended in 75 mM Tris-HCl pH 7.5, 12.5 mM MgCl2, 0.3 mM EDTA, 1 mM EGTA, and 250 mM sucrose. Membranes were frozen in liquid nitrogen until use. On the day of the assay, membranes were thawed and diluted in assay buffer (20 mM HEPES pH 7.4, 100 mM NaCl, 10 μg/ml saponin, 1 mM MgCl2) to give 500 μg/ml and mixed (v/v) with GDP in assay buffer for a final GDP concentration of 10 μM and incubated on ice for at least 15 min. PVT-WGA beads (Amersham, RPNQ001) were diluted in assay buffer at 50 mg/mL and mixed with GTPγ[^35S] (Amersham, SJ1308) diluted in assay buffer to give ˜25,000 dpm/10 μL, and mixed vol/vol just before the start of the reaction. The reaction was started by adding 50 μL of test compound, 20 μL of the membranes:GDP mix, 10 μL of buffer, and 20 μL of the GTPγ[^35S]:beads mix in a 96 well plate Optiplate™ (PerkinElmer, 6005299) covered with topseal (TopCount™, PerkinElmer), mixed with an orbital shaker for 2 min, incubated for 1 hour at room temperature, centrifuged for 10 min at 2000 rpm, incubated for 1 h at room temperature, and counted for 1 min in a TopCount™ reader (PerkinElmer). Dose response curves and IC50 values (concentration to inhibit the reaction by 50%) were calculated by nonlinear regression using XLfit software (IDBS).
For antagonists testing, 10 μL of a reference agonist (R-γ-Me-Histamine) instead of 10 μL buffer was added at a concentration corresponding to the EC80 (30 nM). Control ligands were R-γ-Me-Histamine (Tocris, 0569), Imetit (Sigma, I-135), Thioperamide (Tocris, 0644), and Clobenpropit (Tocris, 0754) diluted in assay buffer.
The compounds provided herein were tested in the histamine H3 in vitro assay. In one embodiment, the respective HCl salts of the compounds provided herein were prepared using standard chemical procedures and tested in the histamine H3 in vitro assay.

T1 sequence (Q9Y5N1 whole entry): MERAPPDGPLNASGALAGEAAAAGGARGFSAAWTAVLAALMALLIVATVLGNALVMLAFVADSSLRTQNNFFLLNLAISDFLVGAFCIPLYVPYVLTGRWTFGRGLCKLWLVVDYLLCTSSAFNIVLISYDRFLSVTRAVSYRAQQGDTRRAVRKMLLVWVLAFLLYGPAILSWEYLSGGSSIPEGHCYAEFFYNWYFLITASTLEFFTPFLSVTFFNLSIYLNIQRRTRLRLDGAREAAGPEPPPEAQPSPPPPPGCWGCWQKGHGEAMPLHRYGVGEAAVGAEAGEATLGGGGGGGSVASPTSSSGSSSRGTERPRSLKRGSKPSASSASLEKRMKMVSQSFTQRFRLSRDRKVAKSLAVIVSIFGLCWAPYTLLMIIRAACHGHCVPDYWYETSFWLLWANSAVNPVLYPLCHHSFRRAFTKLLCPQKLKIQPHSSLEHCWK

| IC50 | Compound |
| --- | --- |
| ≤ 100 nM | c1cn2cc(-c3ccc4c(c3)OC3(CCCN(C5CCC5)CC3)C4)ccc2n1 (stereo not drawn) [Compound 69, 1-Cyclobutyl-6′-(imidazo[1,2-a]pyridin-6-yl)-3′H-spiro[azepane-4,2′-benzofuran]] |
| ≤ 100 nM | c1cc2c(cc1CN1CCCC1)OC1(CCN(C3CCC3)CC1)C2 [Compound 45, 1′-Cyclobutyl-6-(pyrrolidin-1-ylmethyl)-3H-spiro[benzofuran-2,4′-piperidine]] |
| ≤ 100 nM | NCc1ccc(-c2ccc3c(c2)CC2(CCN(C4CCC4)CC2)O3)cc1 [Compound 14, (4-(1′-Cyclobutyl-3H-spiro[benzofuran-2,4′-piperidine]-5-yl)phenyl)methanamine] |
| ≤ 100 nM | CC1CCCC1N1CCC2(CC1)Cc1cc(-c3ccc(C#N)cc3)ccc1O2 (stereo not drawn) [Compound 18] |
| ≤ 100 nM | Brc1ccc2c(c1)CC1(CCN3CCCCC3C1)O2 (single isomer, unassigned) [Compound 73, 5-Bromo-1′,3′,4′,6′,7′,8′,9′,9a′-octahydro-3H-spiro[benzofuran-2,2′-quinolizine]] |
| ≤ 10 nM | c1cc2c(cc1CN1CCOCC1)CC1(CCN3CCCCC3C1)O2 (stereo not drawn) [Compound 79, 5-(Morpholinomethyl)-1′,3′,4′,6′,7′,8′,9′,9a′-octahydro-3H-spiro[benzofuran-2,2′-quinolizine]] |
| ≤ 100 nM | c1cc2c(cc1CN1CCOCC1)OC1(CCN(C3CCC3)CC1)C2 [Compound 44, 1′-Cyclobutyl-6-(morpholinomethyl)-3H-spiro[benzofuran-2,4′-piperidine]] |
| ≤ 10 nM | c1cc2c(cc1CN1CCOCC1)CC1(CCN3CCCCC3C1)O2 (stereo not drawn) [Compound 78, 5-(Morpholinomethyl)-1′,3′,4′,6′,7′,8′,9′,9a′-octahydro-3H-spiro[benzofuran-2,2′-quinolizine]] |
| ≤ 10 nM | c1ccc2c(c1)ncn2-c1ccc2c(c1)OC1(CCCN(C3CCC3)CC1)C2 (stereo not drawn) [Compound 70, 6′-(1H-Benzo[d]imidazol-1-yl)-1-cyclobutyl-3′H-spiro[azepane-4,2′-benzofuran]] |
| ≤ 1000 nM | CC(C1CCC1)N1CCC2(CC1)Cc1cc(Br)ccc1O2 (stereo not drawn) [Compound 25, 5-Bromo-1′-(1-cyclobutylethyl)-3H-spiro[benzofuran-2,4′-piperidine]] |
| ≤ 10 nM | c1cc2nc(-c3ccc4c(c3)CC3(CCN(C5CCC5)CC3)O4)cnc2[nH]1 [Compound 58, 1′-Cyclobutyl-5-(5H-pyrrolo[2,3-b]pyrazin-2-yl)-3H-spiro[benzofuran-2,4′-piperidine]] |
| ≤ 1000 nM | 5-Bromo-1′,2′,3′,5′,6′,7′,9′,9a′-octahydro-3H-spiro[benzofuran-2,8′-pyrrolo[1,2-a]azepine] and 5-bromo-1′,2′,3′,5′,6′,8′,9′,9a′-octahydro-3H-spiro[benzofuran-2,7′-pyrrolo[1,2-a]azepine] [94/94a] |
| ≤ 10 nM | 5-((3,4-Dihydroisoquinolin-2(1H)-yl)methyl)-1′,2′,3′,5′,6′,7′,9′,9a′-octahydro-3H-spiro[benzofuran-2,8′-pyrrolo[1,2-a]azepine] and 5-((3,4-dihydroisoquinolin-2(1H)-yl)methyl)-1′,2′,3′,5′,6′,8′,9′,9a′-octahydro-3H-spiro[benzofuran-2,7′-pyrrolo[1,2-a]azepine] [97/97a] |
| ≤ 100 nM | N#Cc1ccc(-c2ccc3c(c2)CC2(CCN(C4CCCCC4)CC2)O3)cc1 [Compound 20, 4-(1′-Cyclohexyl-3H-spiro[benzofuran-2,4′-piperidine]-5-yl)benzonitrile] |
| ≤ 100 nM | N#Cc1ccc(-c2ccc3c(c2)OC2(CCCN(C4CCC4)CC2)C3)cc1 (stereo not drawn) [Compound 68, 4-(1-Cyclobutyl-3′H-spiro[azepane-4,2′-benzofuran]-6′-yl)benzonitrile] |
| ≤ 10 nM | CC(C1CCC1)N1CCC2(CC1)Cc1cc(-c3ccc(C#N)cc3)ccc1O2 (stereo not drawn) [Compound 11, 4-(1′-(1-Cyclobutylethyl)-3H-spiro[benzofuran-2,4′-piperidine]-5-yl)benzonitrile] |
| ≤ 100 nM | 5-((3,4-Dihydroisoquinolin-2(1H)-yl)methyl)-2′,3′,4′,6′,7′,9′,10′,10a′-octahydro-1′H,3H-spiro[benzofuran-2,8′-pyrido[1,2-a]azepine] and 5-((3,4-dihydroisoquinolin-2(1H)-yl)methyl)-2′,3′,4′,6′,7′,8′,10′,10a′-octahydro-1′H,3H-spiro[benzofuran-2,9′-pyrido[1,2-a]azepine] [88/88a] |
| ≤ 10 nM | c1nc2ccc(-c3ccc4c(c3)CC3(CCN(C5CCC5)CC3)O4)cn2n1 [Compound 62, 5-([1,2,4]Triazolo[1,5-a]pyridin-6-yl)-1′-cyclobutyl-3H-spiro[benzofuran-2,4′-piperidine]] |

Second part, the compound before the results:

| Compound | IC50 |
| --- | --- |
| N#Cc1ccc(NCc2ccc3c(c2)CC2(CCN(C4CCC4)CC2)O3)cc1 [Compound 42, 4-((1′-Cyclobutyl-3H-spiro[benzofuran-2,4′-piperidine]-5-yl)methylamino)benzonitrile] | ≤ 100 nM |
| N#Cc1ccc(-c2ccc3c(c2)CC2(CCC4CCCCN4CC2)O3)cc1 (stereo not drawn) [Compound 85, 4-(2′,3′,4′,6′,7′,9′,10′,10a′-Octahydro-1′H,3H-spiro[benzofuran-2,8′-pyrido[1,2-a]azepin]-5-yl)benzonitrile] | ≤ 10 nM |
| CC(C)N1CCC2(CC1)Cc1cc(-c3ccc(C#N)cc3)ccc1O2 [Compound 22, 4-(1′-Isopropyl-3H-spiro[benzofuran-2,4′-piperidine]-5-yl)benzonitrile] | ≤ 10 nM |
| N#Cc1ccc(NCc2ccc3c(c2)OC2(CCN(C4CCC4)CC2)C3)cc1 [Compound 46, 4-((1′-Cyclobutyl-3H-spiro[benzofuran-2,4′-piperidine]-6-yl)methylamino)benzonitrile] | ≤ 100 nM |
| CC(=O)Nc1ccc(-c2ccc3c(c2)CC2(CCN(C(C)C4CCC4)CC2)O3)cc1 (stereo not drawn) [Compound 12, N-(4-(1′-(1-Cyclobutylethyl)-3H-spiro[benzofuran-2,4′-piperidine]-5-yl)phenyl)acetamide] | ≤ 10 nM |
| c1ccc2c(c1)ncn2-c1ccc2c(c1)C[C@]1(CCCN(C3CCC3)CC1)O2 (single isomer, unassigned) [Compound 53, 5′-(1H-Benzo[d]imidazol-1-yl)-1-cyclobutyl-3′H-spiro[azepane-4,2′-benzofuran]] | ≤ 100 nM |
| N#Cc1ccc(-c2ccc3c(c2)CC2(CCN4CCCCC4C2)O3)cc1 (stereo not drawn) [Compound 75, 4-(-1′,3′,4′,6′,7′,8′,9′,9a′-Octahydro-3H-spiro[benzofuran-2,2′-quinolizin]-5-yl)benzonitrile] | ≤ 10 nM |
| N#Cc1ccc(-c2ccc3c(c2)CC2(CCN(CC4CCC4)CC2)O3)cc1 [Compound 21, 4-(1′-(Cyclobutylmethyl)-3H-spiro[benzofuran-2,4′-piperidine]-5-yl)benzonitrile] | ≤ 1000 nM |
| N#Cc1ccc(-c2ccc3c(c2)OC2(CCN(C4CCC4)CC2)C3)cc1 [Compound 35, 4-(1′-Cyclobutyl-3H-spiro[benzofuran-2,4′-piperidine]-6-yl)benzonitrile] | ≤ 100 nM |
| CC(=O)Nc1ccc(-c2ccc3c(c2)CC2(CCN(C4CCC4)CC2)O3)cc1 [Compound 6, N-(4-(1′-Cyclobutyl-3H-spiro[benzofuran-2,4′-piperidine]-5-yl)phenyl)acetamide] | ≤ 10 nM |
| c1cc2cc(-c3ccc4c(c3)CC3(CCN(C5CCC5)CC3)O4)ccc2[nH]1 [Compound 7, 1′-Cyclobutyl-5-(1H-indol-5-yl)-3H-spiro[benzofuran-2,4′-piperidine]] | ≤ 100 nM |
| c1cc2c(cc1N1CCCCC1)CC1(CCCN(C3CCC3)CC1)O2 (stereo not drawn) [Compound 51, 1-Cyclobutyl-5′-(piperidin-1-yl)-3′H-spiro[azepane-4,2′-benzofuran]] | ≤ 100 nM |
| N#Cc1ccc(-c2ccc3c(c2)CC2(CCN4CCCC4C2)O3)cc1 (stereo not drawn) [Compound 90, 4-(2′,3′,5′,6′,8′,8a′-Hexahydro-1′H,3H-spiro[benzofuran-2,7′-indolizin]-5-yl)benzonitrile] | ≤ 10 nM |
| c1cc2cc(-c3ccc4c(c3)CC3(CCN(C5CCC5)CC3)O4)cnc2[nH]1 [Compound 55, 1′-Cyclobutyl-5-(1H-pyrrolo[2,3-b]pyridin-5-yl)-3H-spiro[benzofuran-2,4′-piperidine]] | ≤ 100 nM |

Same assay, conditions: histamine H3 in vitro assay; read-out: IC50 values

| Compound | IC50 |
| --- | --- |
| c1ccc2c(c1)CC1(CCN(Cc3c[nH]cn3)CC1)O2 [Compound 3, 1′-((1H-Imidazol-4-yl)methyl)-3H-spiro [benzofuran-2,4′-piperidine]] | > 1000 nM |
